A word on the solubility: it is the dissolved amount per volume that the medium holds. A low value points to little dissolved substance.

The data set in a line: physchem. It is filed as physicochemical.

With `C[C@H]1NCc2cc(-c3ccc4c(=O)c(C(=O)O)cn(C5CC5)c4c3OC(F)F)ccc21` [des-quinolone, 1-Cyclopropyl-8-(difluoromethoxy)-7-[(1R)-1-methyl-2,3-dihydro-1H-5-isoindolyl]-4-oxo-1,4-dihydro-3-quinolinecarboxylic acid methanesulfonate monohydrate], the solubility (aqueous buffer) was ~70 µg/mL and the solubility (water) is ~17400 µg/mL.
